This note sets out measurements from PMC5504357, “Antifungal Potential of Copper(II), Manganese(II) and Silver(I) 1,10-Phenanthroline Chelates Against Multidrug-Resistant Fungal Species Forming the Candida haemulonii Complex: Impact on the Planktonic and Biofilm Lifestyles” (Frontiers in Microbiology, 2017).

In one data set the test system is Candida duobushaemulonii. The data set can be described thus: Planktonic growth, broth microdilution (CLSI M27-A3), MIC. The class given is cell-based. The text has this: (§1) Three clinical isolates of each species that form the C. haemulonii complex were used in this study: C. haemulonii (LIPCh4 from finger nail, LIPCh7 from toe nail, and LIPCh12 from blood), C. duobushaemulonii (LIPCh1 from finger nail, LIPCh6 from toe nail, and LIPCh8 from blood) and C. haemulonii var. vulnera (LIPCh5 from toe nail, LIPCh9 from urine, and LIPCh11 from blood) (Ramos et al., [2015]). The fungal isolates were identified by the automatized system VITEK® 2 and then characterized by ITS1-5.8S-ITS2 gene sequencing (Ramos et al., [2015]). Fungal cells were cultured in Sabouraud-dextrose medium under constant agitation (130 rpm) for 48 h at 37°C. Human lung adenocarcinoma A549 cells were maintained in culture flasks containing DMEM medium supplemented with 10% fetal bovine serum at 37°C in an atmosphere of 5% CO2.
(§2) Susceptibility profile assays were performed in accordance with the broth microdilution protocol described in the document M27-A3 published by the Clinical and Laboratory Standards Institutes (CLSI, [2008]). Samples of the test chelates were dissolved in DMSO (500 μL) and then serially diluted in a 96-well plate containing RPMI 1640 (Sigma-Aldrich, USA) to give the concentration range of 0.0625-32 mg/L. Aqueous solutions of the metal-free phen ligand and the simple metal salts, MnCl2, CuCl2, and AgNO3, were also screened over the same concentration range. Caspofungin (Sigma-Aldrich) was used as a classical antifungal agent able to block the growth of all clinical isolates of C. haemulonii species as previously reported by our research group (Ramos et al., [2015]). Water dilutions containing DMSO concentrations corresponding to those used to prepare the drug solutions were assessed in parallel. Untreated and compound-treated fungal cells were incubated at 37°C for 48 h and the minimal inhibitory concentration (MIC) was established as the lowest compound concentration where no cellular growth could be detected by visual inspection in accordance to the CLSI recommendation. The geometric mean of the MIC values (GM-MIC) of each compound against all the fungal isolates was calculated using the software, Microsoft Office Excel 2013.
Background: In broth dilution the organism is exposed to a series of concentrations in liquid medium.

The test system of data set [1] is Candida haemulonii var. vulnera. The description is as above. It is filed as cell-based.
Description: as §1, §2

A further data set relates to Candida haemulonii. The description is as above. It is filed as cell-based.
Description: as §1, §2

In a further data set the test system is C. haemulonii complex. The data set can be described thus: Planktonic growth, overall across all nine isolates. It is filed as cell-based, Candida haemulonii complex. The settings on record: for Overall GM-MIC / MIC: geometric mean across all nine strains; for effect on planktonic fungal growth/viability (in words): nine clinical isolates, 0.0625-32 mg/L; for MIC: read-out: Overall GM-MIC.
Description: as §1, §2

Another data set concerns A549 cells. Description: Mammalian cell toxicity (MTT assay) and selectivity index. It is filed as cell-based, Human.
Description: as §1
The cytotoxicity was evaluated using the MTT [3-(4,5-dimethylthiazol-2-yl)-2,5-diphenyl tetrazolium bromide] (Sigma-Aldrich) assay (Mosmann, [1983]). A549 cells (10^4) were seeded into tissue culture plates (TPP, Switzerland) and cultured for 24 h at 37°C in a 5% CO2 in order to obtain cellular confluence. The wells were then washed twice with DMEM to remove non-adherent cells and the test compounds were added (in concentrations ranging from 0.0313 to 512 μg/mL) to plates containing DMEM, followed by a 48 h incubation period under the same conditions mentioned above. The cellular viability was evaluated by adding MTT to each well and incubating the plates in the dark for 3 h, allowing the viable cells containing active mitochondrial dehydrogenase enzymes to metabolize MTT-tetrazolium salt into purple formazan. The formazan crystals were then dissolved in DMSO (100 μL) and the absorbance (450 nm) measured using a Thermomax Molecular Device microplate reader. The concentration capable of reducing cellular viability by 50% (CC50) was calculated, and the selectivity index (SI) determined using the following equation: A549 CC50/C. haemulonii complex GM-MIC.
(Tetrazolium dyes change colour on reduction, which living cells bring about.)

Setting [2] is: geometric mean of three C. duobushaemulonii isolates.
Setting [3] is: isolate LIP Ch1, planktonic, 48 h, 37°C.
The mark [4] stands for this setting: isolate LIP Ch6, planktonic, 48 h, 37°C.
The mark [5] stands for this setting: isolate LIP Ch8, planktonic, 48 h, 37°C.
Where [6] appears, read: geometric mean of three C. haemulonii var. vulnera isolates.
[7] abbreviates: isolate LIP Ch5, planktonic, 48 h, 37°C.
Setting [8] is: isolate LIP Ch9, planktonic, 48 h, 37°C.
[9] abbreviates: isolate LIP Ch11, planktonic, 48 h, 37°C.
The mark [10] stands for this setting: geometric mean of three C. haemulonii isolates.
[11] abbreviates: isolate LIP Ch4, planktonic, 48 h, 37°C.
Where [12] appears, read: isolate LIP Ch7, planktonic, 48 h, 37°C.
[13] abbreviates: isolate LIP Ch12, planktonic, 48 h, 37°C.

≈ marks a conversion by molar mass, not a printed value. Where two headings read alike, the source gives them in different places.

Take `[Cl][Mn][Cl]` [MnCl2, reference compound]: the GM-MIC (in the data set on Candida duobushaemulonii (setting [2]); in data set [1] (setting [6]); in the data set on Candida haemulonii (setting [10])) was over 32 µg/mL each time. Also, the minimal inhibitory concentration (MIC) (against Candida duobushaemulonii (setting [3]); in the data set with Candida duobushaemulonii (setting [4]); against Candida duobushaemulonii (setting [5]); in data set [1] (setting [7]); in data set [1] (setting [8]); in data set [1] (setting [9])) was over 32 µg/mL each time. Besides, the minimum inhibitory concentration (MIC) against Candida haemulonii (setting [11]), in the data set with Candida haemulonii (setting [12]) and in the data set on Candida haemulonii (setting [13]) was over 32 µg/mL throughout. For the same compound, the “Overall GM-MIC” value in the data set on C. haemulonii complex was over 32 µg/mL. The “effect on planktonic fungal growth/viability (in words)” value in the data set on C. haemulonii complex is listed as “no appreciable effects”. Moreover, the “A549 (CC50)” value in the data set on A549 cells (MTT, 48 h incubation) is 133.76 µg/mL.
On to `CCO.CCO.O.O.O.O=C([O-])c1ccccc1C(=O)[O-].[Cu+2].c1cnc2c(c1)ccc1cccnc12.c1cnc2c(c1)ccc1cccnc12` [compound 2, [Cu(ph)(phen)2].3H2O.2EtOH], for which the GM-MIC (in the data set on Candida duobushaemulonii (setting [2]); in data set [1] (setting [6]); with Candida haemulonii (setting [10])) was over 32 µg/mL each time. Further, the minimal inhibitory concentration (MIC) (against Candida duobushaemulonii (setting [3]); against Candida duobushaemulonii (setting [4]); in the data set with Candida duobushaemulonii (setting [5]); in data set [1] (setting [7]); in data set [1] (setting [8]); in data set [1] (setting [9])) was over 32 µg/mL throughout. In addition, the MIC (usually the smallest concentration in the dilution series that meets the test's criterion for growth inhibition) against Candida haemulonii (setting [11]) was over 32 µg/mL; in the data set on Candida haemulonii (setting [12]), over 32 µg/mL; in the data set with Candida haemulonii (setting [13]), over 32 µg/mL; with C. haemulonii complex (in μM) it was over 43.52 µM. Moreover, in the data set with C. haemulonii complex, the “Overall GM-MIC” value was over 32 µg/mL. Also, the “A549 (CC50)” value in the data set on A549 cells amounted to 1.93 µg/mL.
As to `O.O.O=C([O-])c1ccccc1C(=O)[O-].[Cu+2].c1cnc2c(c1)ccc1cccnc12` [compound 1, [Cu(ph)(phen)(H2O)2]], the GM-MIC (in the data set on Candida duobushaemulonii (setting [2]); in data set [1] (setting [6]); in the data set on Candida haemulonii (setting [10])) was over 32 µg/mL each time. The minimal inhibitory concentration (MIC) (in the data set with Candida duobushaemulonii (setting [3]); with Candida duobushaemulonii (setting [4]); with Candida duobushaemulonii (setting [5]); in data set [1] (setting [7]); in data set [1] (setting [8]); in data set [1] (setting [9])) was over 32 µg/mL in each case. Besides, the MIC with Candida haemulonii (setting [11]) is over 32 µg/mL; with Candida haemulonii (setting [12]), over 32 µg/mL; with Candida haemulonii (setting [13]), over 32 µg/mL; with C. haemulonii complex (in μM) it was over 72 µM. Besides, the “Overall GM-MIC” value with C. haemulonii complex is over 32 µg/mL. Besides, in the data set with A549 cells, the “A549 (CC50)” value came out at 0.53 µg/mL.
Consider `[Cl][Cu][Cl]` [CuCl2, reference compound], for which the GM-MIC (in the data set on Candida duobushaemulonii (setting [2]); in data set [1] (setting [6]); in the data set with Candida haemulonii (setting [10])) was over 32 µg/mL throughout. For the same compound, the MIC (in the data set with Candida duobushaemulonii (setting [3]); against Candida duobushaemulonii (setting [4]); against Candida duobushaemulonii (setting [5]); in data set [1] (setting [7]); in data set [1] (setting [8]); in data set [1] (setting [9])) was over 32 µg/mL in each case. Moreover, the minimum inhibitory concentration (MIC) with Candida haemulonii (setting [11]), with Candida haemulonii (setting [12]) and in the data set with Candida haemulonii (setting [13]) was over 32 µg/mL in each case. For the same compound, in the data set with C. haemulonii complex, the “Overall GM-MIC” value was over 32 µg/mL. In addition, in the data set on C. haemulonii complex, the “effect on planktonic fungal growth/viability (in words)” value is “no appreciable effects”. In addition, the “A549 (CC50)” value in the data set with A549 cells (MTT, 48 h incubation) turned out to be 123.68 µg/mL.
As for `CCO.CCO.O=C([O-])c1ccc(C(=O)[O-])cc1.O=C([O-])c1ccc(C(=O)[O-])cc1.[Cu+2].[Cu+2].c1cnc2c(c1)ccc1cccnc12.c1cnc2c(c1)ccc1cccnc12.c1cnc2c(c1)ccc1cccnc12.c1cnc2c(c1)ccc1cccnc12` [compound 4, [{Cu(phen)2}2(terph)](terph).13.5H2O.2EtOH], the GM-MIC in the data set with Candida duobushaemulonii (setting [2]) was over 32 µg/mL; in data set [1] (setting [6]), 32 µg/mL; with Candida haemulonii (setting [10]), over 32 µg/mL. The minimal inhibitory concentration (MIC) in the data set with Candida duobushaemulonii (setting [3]) is over 32 µg/mL; in the data set with Candida duobushaemulonii (setting [4]) it was over 32 µg/mL; in the data set on Candida duobushaemulonii (setting [5]) it was over 32 µg/mL; in data set [1] (setting [7]) it was 32 µg/mL; in data set [1] (setting [8]), 32 µg/mL; in data set [1] (setting [9]) it was 32 µg/mL. Moreover, the MIC is over 32 µg/mL in the data set with Candida haemulonii (setting [11]), over 32 µg/mL in the data set on Candida haemulonii (setting [12]), over 32 µg/mL against Candida haemulonii (setting [13]) and over 21.92 µM with C. haemulonii complex (in μM). Further, the “Overall GM-MIC” value with C. haemulonii complex is over 32 µg/mL. Moreover, the “A549 (CC50)” value with A549 cells (MTT, 48 h incubation) was determined as 3.86 µg/mL.
On to `CC[C@H](C)C[C@H](C)CCCCCCCCC(=O)N[C@H]1C[C@@H](O)[C@@H](NCCN)NC(=O)[C@@H]2[C@@H](O)CCN2C(=O)[C@H]([C@H](O)CCN)NC(=O)[C@H]([C@H](O)[C@@H](O)c2ccc(O)cc2)NC(=O)[C@@H]2C[C@@H](O)CN2C(=O)[C@H]([C@@H](C)O)NC1=O` [Caspofungin, reference compound], for which the minimal inhibitory concentration (MIC) in the data set with Candida duobushaemulonii (Candidozyma duobushaemuli, 48 h) was found to be 0.125 µg/mL (≈ 0.114 µM); in the data set with Candida duobushaemulonii (Candidozyma duobushaemuli, 48 h, isolate LIP Ch6, planktonic, 48 h, 37°C, read-out: MIC) it was 0.25 µg/mL (≈ 0.229 µM); with Candida duobushaemulonii (Candidozyma duobushaemuli, geometric mean of three C. duobushaemulonii isolates, read-out: GM-MIC), 0.157 µg/mL (≈ 0.144 µM); against Candida duobushaemulonii (setting [3]) it was 0.125 µg/mL (≈ 0.114 µM); in data set [1] (Candidozyma haemuli, 48 h, isolate LIP Ch5, planktonic, 48 h, 37°C, read-out: MIC), 0.25 µg/mL (≈ 0.229 µM); in data set [1] (Candidozyma haemuli, 48 h, isolate LIP Ch9, planktonic, 48 h, 37°C, read-out: MIC), 0.25 µg/mL (≈ 0.229 µM). The minimum inhibitory concentration (MIC) was found to be 0.5 µg/mL (≈ 0.457 µM) in data set [1] (Candidozyma haemuli, 48 h, isolate LIP Ch11, planktonic, 48 h, 37°C, read-out: MIC); 0.315 µg/mL (≈ 0.288 µM) in data set [1] (Candidozyma haemuli, geometric mean of three C. haemulonii var. vulnera isolates, read-out: GM-MIC); 0.125 µg/mL (≈ 0.114 µM) in the data set on Candida haemulonii (Candidozyma haemuli, 48 h); 0.5 µg/mL (≈ 0.457 µM) in the data set with Candida haemulonii (Candidozyma haemuli, 48 h, isolate LIP Ch4, planktonic, 48 h, 37°C, read-out: MIC); 0.25 µg/mL (≈ 0.229 µM) with Candida haemulonii (Candidozyma haemuli, 48 h, isolate LIP Ch7, planktonic, 48 h, 37°C, read-out: MIC); 0.25 µg/mL (≈ 0.229 µM) in the data set with Candida haemulonii (Candidozyma haemuli, geometric mean of three C. haemulonii isolates, read-out: GM-MIC). Moreover, the minimal inhibitory concentration (MIC) in the data set with C. haemulonii complex (Candidozyma haemuli, in μM) was 0.18 µM; in the data set on C. haemulonii complex (Candidozyma haemuli), 0.23 µg/mL.
